Data as given in patent publication US11179401B2, “Use of vanadium compounds for maintaining normaglycemia in a mammal” (CFM Pharma Holding BV, priority 2011, dated 2021).

Tests used:
male Wistar rats = test: Renal ischemia-reperfusion (I/R) in anesthetized rats with BMOV infusion; assay type: in vivo, rat
Method: Thirty two male Wistar rats (Harlan Netherlands BV, Horst, The Netherlands) with a mean body weight of 280±30 grams were used in this study. The animals were quarantined prior to start of the investigation for 1 week to permit acclimatization to their new environment and were housed in pairs in conventional cages in a light-controlled room kept at 22±1° C. with a relative humidity of 55±10%. All animals received standard laboratory rat chow and water for consumption ad libitum.
All animals were initially anesthetized with a mixture of ketamine (Nimatek, Eurovet Animal Health BV, Bladel, The Netherlands; 90 mg/kg), dexmedetomidine (Dexdomitor, Pfizer Animal Health BV, Capelle aan den IJssel, The Netherlands; 0.5 mg/kg), and atropine sulfate (Centrafarm BV, Etten-Leur, The Netherlands; 0.05 mg/kg) by intraperitoneal injection. Once anesthetized, the area between the thoracic manubrium and chin and the left flank covering the left kidney were shaved and cleaned prior to initiating the surgical procedure. During the remainder of the surgical preparation and experimental procedures, anesthesia was maintained via tracheotomy and mechanical ventilation with an inspired oxygen fraction (FiO2) of 0.4. Body temperature was maintained at 37±0.5° C. during the entire experiment. The ventilator settings were adjusted to maintain an arterial pCO2 between 35 and 40 MmHg.
For drug and fluid administration and hemodynamic monitoring, three vessels were cannulated with polyethylene catheters (outer diameter=0.9 mm; Braun, Melsungen, Germany). A catheter in the right carotid artery was connected to a pressure transducer to monitor arterial blood pressure and heart rate. The right jugular vein was cannulated for continuous infusion of Ringer's lactate (Baxter, Utrecht, The Netherlands) at a rate of 15 ml/kg/hr. The femoral artery was cannulated for withdrawing blood samples for blood gas analysis. Animals were kept under general anesthesia during all experiments and received continuous intravenous diluted ketamine or analgesic drug infusions. The left kidney was exposed, decapsulated, and immobilized in a Lucite (i.e. poly (methyl methacrylate); PMMA) custom made kidney cup via a ˜4 cm incision on the left flank. The renal artery and vein were carefully separated to preserve the surrounding nerves and adrenal gland. A perivascular ultrasonic transient time flow probe (type 0.7 RB; Transonic Systems, Ithaca, N.Y., USA) was placed around the left renal artery and connected to a flow meter (T206; Transonic Systems, Ithaca, N.Y., USA) to allow continuous measurement of renal blood flow (RBF). The left ureter was isolated, ligated, and cannulated with a polyethylene catheter (outer diameter=0.9 mm; Braun, Melsungen, Germany) for urine collection. A small piece of aluminum foil (10×10 mm) was placed on the dorsal site of the renal vein to prevent contribution of juxtaposed and underlying tissues from interfering with the phosphorescence signal in the venous pO2 measurement. After the surgical protocol (˜60 min), one optical fiber was placed 1 mm above the decapsulated kidney and another optical fiber 1 mm above the renal vein to measure oxygenation using a phosphorescence lifetime technique (20). Oxyphor G2 (Oxygen Enterprises, Philadelphia, Pa., USA; 6 mg/kg) was subsequently infused intravenously for 5 min, followed by 30 min of stabilization time.
The operation field was covered with a humidified gauze compress throughout the entire experiment to prevent drying of the exposed tissues in the surgical field. The phosphorescence lifetime measurements have been described in more details elsewhere (20). The experiment was terminated by infusion of 1 ml of 3 M potassium chloride. Finally, the kidney was removed, weighed, and processed for histological evaluation. The correct placements of the catheters were also checked postmortem. […]

critically ill patients = conditions: intensive insulin therapy, cited from earlier work
[1] = BMOV 7 and 15 mg/kg infusion, 30 min ischemia, 90 min reperfusion, effect not dose-dependent
[2] = high dose BMOV (15 mg/kg) compared to low dose (7 mg/kg)
[3] = kidney immunohistochemistry after 30 min ischemia, 90 min reperfusion, vs I/R control, dose-dependent

| Compound | mean arterial pressure (male Wistar rats; [1]) | microvascular oxygenation in the renal cortex (male Wistar rats; [1]) | microvascular oxygenation in the renal medulla (male Wistar rats; [1]) | renal blood flow (male Wistar rats; [1]) | renal oxygen delivery (male Wistar rats; [1]) | renal oxygen utilization efficiency (VO2/Tna+) (male Wistar rats; [1]) | renal hemodynamics (male Wistar rats; FIG. 2, 30 min ischemia, 90 min reperfusion) | NGAL levels (male Wistar rats; [2]) | iNOS expression (male Wistar rats; [2]) | inflammatory activation (IL-6, iNOS expression, MPO-stained leukocytes) (male Wistar rats; [3]) | renal injury (biomarkers NGAL, L-FABP) (male Wistar rats; [3]) | overall ICU mortality (critically ill patients; reduced from 8%) | ICU mortality among patients requiring more than five days intensive care (critically ill patients; reduced from 20.2%) |
| --- | --- | --- | --- | --- | --- | --- | --- | --- | --- | --- | --- | --- | --- |
| Cc1occc(=O)c1[O-].Cc1occc(=O)c1[O-].[O]=[V+2] [BMOV, bis(maltolato)oxovanadium(IV)] | did not affect | significantly increased | significantly increased | did not affect | did not affect | increased | did not affect | significantly lower | significantly lower | significantly decreased | significantly decreased | – | – |
| insulin: intensive insulin therapy in critically ill ICU patients, literature | – | – | – | – | – | – | – | – | – | – | – | 4.6% | 10.6% |
